{"source": "patent US20130310256A1", "about": "“HERBICIDAL COMPOSITIONS COMPRISING 4-AMINO-3-CHLORO-5-FLUORO-6-(4-CHLORO-2-FLUORO-3-METHOXYPHENYL) PYRIDINE-2-CARBOXYLIC ACID OR A DERIVATIVE THEREOF AND VLCFA AND LIPID SYNTHESIS INHIBITING HERBICIDES” (DOW AGROSCIENCES LLC, priority 2008, published 2013)", "tested_on": "SINAR", "experiment": "Example III: post-emergence foliar-applied weed control in cereal crops, greenhouse", "assay_type": "in vivo, Sinapis arvensis L.", "conditions": "21 DAA", "description": "Seeds of the desired test plant species were planted in Sun Gro MetroMix® 306 planting mixture, which typically has a pH of 6.0 to 6.8 and an organic matter content of about 30 percent, in plastic pots with a surface area of 103.2 square centimeters (cm^2). When required to ensure good germination and healthy plants, a fungicide treatment and/or other chemical or physical treatment was applied. The plants were grown for 7-36 days in a greenhouse with an approximate 14 hour photoperiod which was maintained at about 18° C. during the day and 17° C. during the night. Nutrients and water were added on a regular basis and supplemental lighting was provided with overhead metal halide 1000-Watt lamps as necessary. The plants were employed for testing when they reached the second or third true leaf stage.\nTreatments consisted of the benzyl ester of 4-amino-3-chloro-5-fluoro-6-(4-chloro-2-fluoro-3-methoxy-phenyl)pyridine-2-carboxylic acid (Compound A), formulated as an SC (suspension concentrate), and a second cereal herbicide alone and in combination.\nMeasured aliquots of the benzyl ester of 4-amino-3-chloro-5-fluoro-6-(4-chloro-2-fluoro-3-methoxy-phenyl)pyridine-2-carboxylic acid (Compound A) were placed in 25 milliliter (mL) glass vials and diluted in a volume of 1.25% (v/v) Agri-dex crop oil concentrated to obtain stock solutions. Compound requirements are based upon a 12 mL application volume at a rate of 187 liters per hectare (L/ha). Spray solutions of the second cereal herbicide and experimental compound mixtures were prepared by adding the stock solutions to the appropriate amount of dilution solution to form 12 mL spray solution with active ingredients in two- and three-way combinations. Formulated compounds were applied to the plant material with an overhead Mandel track sprayer equipped with an 8002E nozzle calibrated to deliver 187 L/ha over an application area of 0.503 square meters (m^2) at a spray height of 18 inches (46 cm) above average plant canopy. Control plants were sprayed in the same manner with the solvent blank.\nThe treated plants and control plants were placed in a greenhouse as described above and watered by sub-irrigation to prevent wash-off of the test compounds. After 20-22 days, the condition of the test plants as compared with that of the control plants was determined visually and scored on a scale of 0 to 100 percent where 0 corresponds to no injury and 100 corresponds to complete kill.\nColby's equation was used to determine the herbicidal effects expected from the mixtures (Colby, S. R. 1967. Calculation of the synergistic and antagonistic response of herbicide combinations. Weeds 15:20-22.).", "data": [{"smiles": "COc1c(Cl)ccc(-c2nc(C(=O)OCc3ccccc3)c(Cl)c(N)c2F)c1F", "note": "[Compound A Benzyl Ester, benzyl ester of 4-amino-3-chloro-5-fluoro-6-(4-chloro-2-fluoro-3-methoxy-phenyl)pyridine-2-carboxylic acid]", "values": [{"measurement": "Visual Weed Control SINAR Obs", "setting": "2.5 gai/ha", "result": 70, "unit": "%"}, {"measurement": "Visual Weed Control SINAR Obs", "setting": "5 gai/ha", "result": 73, "unit": "%"}]}]}
